Values quoted from earlier work in publication PMC12424150 (Drug Delivery, 2025).

Legend:
[1] = ref Dhillon [2018]
[2] = set-up: method as in Wharton et al. [2023]; Lingvay et al. [2024]; settings: ref Wharton et al. [2023]; Lingvay et al. [2024]

CC[C@H](C)[C@H](NC(=O)[C@H](Cc1ccccc1)NC(=O)[C@H](CCC(=O)O)NC(=O)[C@H](CCCCNC(=O)COCCOCCNC(=O)COCCOCCNC(=O)CC[C@H](NC(=O)CCCCCCCCCCCCCCCCC(=O)O)C(=O)O)NC(=O)[C@H](C)NC(=O)[C@H](C)NC(=O)[C@H](CCC(N)=O)NC(=O)CNC(=O)[C@H](CCC(=O)O)NC(=O)[C@H](CC(C)C)NC(=O)[C@H](Cc1ccc(O)cc1)NC(=O)[C@H](CO)NC(=O)[C@H](CO)NC(=O)[C@@H](NC(=O)[C@H](CC(=O)O)NC(=O)[C@H](CO)NC(=O)[C@@H](NC(=O)[C@H](Cc1ccccc1)NC(=O)[C@@H](NC(=O)CNC(=O)[C@H](CCC(=O)O)NC(=O)C(C)(C)NC(=O)[C@@H](N)Cc1cnc[nH]1)[C@@H](C)O)[C@@H](C)O)C(C)C)C(=O)N[C@@H](C)C(=O)N[C@@H](Cc1c[nH]c2ccccc12)C(=O)N[C@@H](CC(C)C)C(=O)N[C@H](C(=O)N[C@@H](CCCNC(=N)N)C(=O)NCC(=O)N[C@@H](CCCNC(=N)N)C(=O)NCC(=O)O)C(C)C [semaglutide]
half-life in humans [1]: 165 to 183 h

Glucagon-like peptide-1 [GLP-1]
average weight loss [2]: up to 15%
